How the values were obtained:
[1] = target: T1, G2019S-LRRK2 (recombinant GST-LRRK2 delta970) (Homo sapiens, UniProt Q5S007, G2019S); assay: LRRK2 kinase assay, G2019S mutant (32P radiometric, peptide substrate); type: biochemical; conditions: G2019S-LRRK2 30 nM, ATP ~52 μM (Km), 30 min at 30° C.
T1 construct: Recombinant GST-LRRK2 (delta970); GST (N); host or cells: baculovirus-infected Sf9 insect cells
Procedure: (§1) Compounds were assessed for inhibition of LRRK2 inhibition using the following procedure. Recombinant GST-LRRK2 (delta970) purified from baculovirus infected insect cells (SF9), at least 90% pure and either wild-type sequence or bearing the pathogenic G2019S mutation, was combined into a kinase buffer at 30 nM concentration. Kinase buffer consists of 50 mM Tris HCl pH 7.4, 1 mM EDTA, and 50 μM peptide substrate (amino acid sequence […]). Experimental compounds or control (no compound) were added at desired concentrations in DMSO and water, where final concentration of DMSO in kinase reactions was 0.1% for all drug concentrations. […] Reactions were incubated at 1400 RPM at 30° C. for 30 min. and then spotted in triplicate directly onto a slot-blot apparatus fitted with phospho-cellulose paper and allowed to dry. Each slot was then washed with 10 mM phosphoric acid buffer until beta-radiation could not be detected in eluted wash buffer, usually ˜1 mL per slot. Paper within each slot were excised and radiation measured by liquid scintillation.

[2] = target: T2, WT-LRRK2 (recombinant GST-LRRK2 delta970) (Homo sapiens, UniProt Q5S007); assay: LRRK2 kinase assay, wild type (32P radiometric, peptide substrate); type: biochemical; conditions: WT-LRRK2 30 nM, ATP ~92 μM (Km), 30 min at 30° C.
T2 construct: Recombinant GST-LRRK2 (delta970); GST (N); host or cells: baculovirus-infected Sf9 insect cells
Procedure: as §1

T1 sequence (Q5S007 970-2527 G2019S limits assumed): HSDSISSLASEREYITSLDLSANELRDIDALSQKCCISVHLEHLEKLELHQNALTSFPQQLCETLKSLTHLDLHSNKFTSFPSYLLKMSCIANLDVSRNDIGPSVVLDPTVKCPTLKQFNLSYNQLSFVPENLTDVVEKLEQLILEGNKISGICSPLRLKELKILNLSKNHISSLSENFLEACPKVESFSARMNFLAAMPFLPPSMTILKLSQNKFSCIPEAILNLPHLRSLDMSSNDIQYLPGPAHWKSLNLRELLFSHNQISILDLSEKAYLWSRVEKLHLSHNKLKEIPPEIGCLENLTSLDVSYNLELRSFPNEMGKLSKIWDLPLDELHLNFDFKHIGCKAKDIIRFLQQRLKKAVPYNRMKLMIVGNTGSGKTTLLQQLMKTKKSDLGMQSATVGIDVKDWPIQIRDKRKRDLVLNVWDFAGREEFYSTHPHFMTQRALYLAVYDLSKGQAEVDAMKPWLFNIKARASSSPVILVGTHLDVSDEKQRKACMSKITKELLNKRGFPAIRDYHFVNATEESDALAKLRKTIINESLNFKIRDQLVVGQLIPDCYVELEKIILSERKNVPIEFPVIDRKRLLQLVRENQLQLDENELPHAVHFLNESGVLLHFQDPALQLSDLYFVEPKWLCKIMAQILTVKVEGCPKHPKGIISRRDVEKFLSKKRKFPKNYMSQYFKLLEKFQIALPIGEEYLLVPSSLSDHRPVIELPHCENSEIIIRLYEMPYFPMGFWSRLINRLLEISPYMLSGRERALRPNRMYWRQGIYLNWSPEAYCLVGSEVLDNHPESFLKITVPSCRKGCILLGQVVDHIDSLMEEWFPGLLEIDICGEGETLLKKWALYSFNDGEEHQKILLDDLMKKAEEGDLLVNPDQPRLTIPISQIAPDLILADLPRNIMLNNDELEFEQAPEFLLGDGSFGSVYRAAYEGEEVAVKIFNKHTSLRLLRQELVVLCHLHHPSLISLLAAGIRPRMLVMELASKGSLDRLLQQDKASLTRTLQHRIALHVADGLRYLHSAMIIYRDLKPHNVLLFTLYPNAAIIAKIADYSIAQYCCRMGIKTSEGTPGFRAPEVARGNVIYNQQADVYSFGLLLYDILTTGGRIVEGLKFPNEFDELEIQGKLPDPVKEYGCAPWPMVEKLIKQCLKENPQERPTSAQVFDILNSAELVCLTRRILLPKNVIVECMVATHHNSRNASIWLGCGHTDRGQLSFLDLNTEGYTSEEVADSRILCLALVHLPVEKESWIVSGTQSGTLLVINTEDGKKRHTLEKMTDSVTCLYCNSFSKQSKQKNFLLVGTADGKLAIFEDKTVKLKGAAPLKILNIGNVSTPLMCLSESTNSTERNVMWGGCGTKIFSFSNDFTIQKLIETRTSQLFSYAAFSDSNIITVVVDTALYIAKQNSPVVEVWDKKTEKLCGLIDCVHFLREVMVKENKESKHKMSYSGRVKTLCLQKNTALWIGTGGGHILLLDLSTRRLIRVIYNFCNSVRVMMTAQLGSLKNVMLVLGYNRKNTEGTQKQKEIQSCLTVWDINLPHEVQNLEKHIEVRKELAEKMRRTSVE
T2 sequence (Q5S007 970-2527 limits assumed): as the sequence (Q5S007 970-2527 G2019S limits assumed) above, with S1050G counted along it

IC50 [1]: 0.099 µM
IC50 [2]: 0.064 µM
Compound: COCc1cc(Nc2nc(N[C@@H](C)C3CC3)c3cc[nH]c3n2)n[nH]1 [Compound 61, (S)-N4-(1-cyclopropylethyl)-N2-(5-(methoxymethyl)-1H-pyrazol-3-yl)-7H-pyrrolo[2,3-d]pyrimidine-2,4-diamine]
